The term IC50 denotes the concentration at which inhibition is half-maximal. A higher IC50 goes with weaker potency in that assay.

Assay [1] concerns the target T1, Glucocorticoid receptor (Homo sapiens, UniProt P04150).
T1 sequence (P04150 whole entry): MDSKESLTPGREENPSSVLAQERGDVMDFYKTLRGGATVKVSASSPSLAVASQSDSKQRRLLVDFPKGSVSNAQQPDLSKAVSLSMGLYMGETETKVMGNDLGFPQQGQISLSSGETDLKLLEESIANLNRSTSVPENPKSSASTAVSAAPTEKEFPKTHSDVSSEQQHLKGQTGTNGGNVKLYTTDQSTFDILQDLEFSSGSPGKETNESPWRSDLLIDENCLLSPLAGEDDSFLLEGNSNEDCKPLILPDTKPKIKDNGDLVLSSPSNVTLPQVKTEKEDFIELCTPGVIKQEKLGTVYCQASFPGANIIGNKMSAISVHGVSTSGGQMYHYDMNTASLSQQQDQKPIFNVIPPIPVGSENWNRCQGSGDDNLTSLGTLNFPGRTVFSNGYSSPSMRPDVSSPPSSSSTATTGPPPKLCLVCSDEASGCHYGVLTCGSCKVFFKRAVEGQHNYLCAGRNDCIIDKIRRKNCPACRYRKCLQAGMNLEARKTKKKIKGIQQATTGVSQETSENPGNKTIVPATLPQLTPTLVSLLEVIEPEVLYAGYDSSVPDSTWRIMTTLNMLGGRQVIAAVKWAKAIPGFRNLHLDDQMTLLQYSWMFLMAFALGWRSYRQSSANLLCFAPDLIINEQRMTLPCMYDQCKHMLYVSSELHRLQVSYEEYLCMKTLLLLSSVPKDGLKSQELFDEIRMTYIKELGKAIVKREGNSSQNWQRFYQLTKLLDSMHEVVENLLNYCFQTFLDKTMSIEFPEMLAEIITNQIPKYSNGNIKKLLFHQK

Assay [2] deals with T1, Glucocorticoid receptor. Type of assay: functional.
Description: Inhibition of glucocorticoid receptor Dexamethasone response in reporter gene assay
The target in assay [3] is T2, Glucocorticoid receptor (Rattus norvegicus, UniProt P06536).
T2 sequence (P06536 whole entry): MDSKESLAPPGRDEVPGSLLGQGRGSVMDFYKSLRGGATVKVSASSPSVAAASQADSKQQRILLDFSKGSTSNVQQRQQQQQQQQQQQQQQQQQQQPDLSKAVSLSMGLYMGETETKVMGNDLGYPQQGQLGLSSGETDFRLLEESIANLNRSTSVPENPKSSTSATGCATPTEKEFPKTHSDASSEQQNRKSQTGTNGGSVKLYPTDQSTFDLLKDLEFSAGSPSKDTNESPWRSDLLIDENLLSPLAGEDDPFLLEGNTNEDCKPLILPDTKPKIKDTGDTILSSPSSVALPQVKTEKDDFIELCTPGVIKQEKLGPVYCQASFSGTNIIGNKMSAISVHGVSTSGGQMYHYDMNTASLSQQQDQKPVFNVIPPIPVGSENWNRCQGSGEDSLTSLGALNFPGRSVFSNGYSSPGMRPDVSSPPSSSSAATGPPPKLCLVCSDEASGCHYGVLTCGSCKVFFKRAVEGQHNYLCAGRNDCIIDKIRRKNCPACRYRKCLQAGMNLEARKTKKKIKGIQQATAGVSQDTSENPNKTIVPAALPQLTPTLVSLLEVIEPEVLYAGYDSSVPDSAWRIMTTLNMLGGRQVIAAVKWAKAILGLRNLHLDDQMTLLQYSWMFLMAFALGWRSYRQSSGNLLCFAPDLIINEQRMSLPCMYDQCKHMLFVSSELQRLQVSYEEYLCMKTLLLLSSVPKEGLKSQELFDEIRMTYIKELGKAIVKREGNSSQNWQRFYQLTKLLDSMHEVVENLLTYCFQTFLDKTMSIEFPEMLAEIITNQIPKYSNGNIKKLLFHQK
Type of assay: functional, cell-based. The note with it: hepatocyte.

Assay [4] has as its target T3, Hepatic sodium/bile acid cotransporter (Rattus norvegicus, UniProt P26435).
T3 sequence (P26435 whole entry): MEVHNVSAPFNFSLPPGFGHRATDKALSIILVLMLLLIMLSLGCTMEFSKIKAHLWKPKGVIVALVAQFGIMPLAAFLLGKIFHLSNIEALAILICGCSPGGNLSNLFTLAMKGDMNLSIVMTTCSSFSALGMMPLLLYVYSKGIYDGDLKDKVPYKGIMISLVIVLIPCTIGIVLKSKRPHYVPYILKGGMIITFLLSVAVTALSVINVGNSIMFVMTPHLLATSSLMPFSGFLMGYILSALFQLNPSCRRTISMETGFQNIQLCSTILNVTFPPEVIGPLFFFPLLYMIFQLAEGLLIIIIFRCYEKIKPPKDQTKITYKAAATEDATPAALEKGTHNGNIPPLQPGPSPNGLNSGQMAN

In the case of `Cc1c(NS(C)(=O)=O)cccc1N(Cc1ccccc1)Cc1ccc(CCC(=O)NCCO[C@H]2CC[C@@]3(C)[C@@H](C2)C[C@@H](O)[C@@H]2[C@@H]3C[C@H](O)[C@]3(C)[C@@H]([C@H](C)CCC(=O)O)CC[C@@H]23)cc1`, the IC50 in assay [1] stood at 0.56 µM; in assay [2], 0.31 µM.

`Cc1c(NS(C)(=O)=O)cccc1N(Cc1ccccc1)Cc1ccc(Oc2cccc(CCCC(=O)NCCO[C@@H]3CC[C@]4(C)[C@H](C3)C[C@H](O)[C@@H]3[C@@H]4C[C@@H](O)[C@]4(C)[C@H]3CC[C@H]4[C@@H](C)CCC(=O)O)c2)cc1`: the values for the 50% inhibitory concentration (IC50) in assay [1] and in assay [2] were 0.062 µM and 0.39 µM, respectively.

`Cc1c(NS(C)(=O)=O)cccc1N(Cc1ccc(CCCC(=O)NCCO[C@@H]2CC[C@]3(C)[C@H](C2)C[C@H](O)[C@@H]2[C@@H]3C[C@@H](O)[C@]3(C)[C@H]2CC[C@H]3[C@@H](C)CCC(=O)O)cc1)Cc1ccc(Oc2ccccc2)cc1` returned an IC50 in assay [1] of 0.26 µM.

Turning to `Cc1c(NS(C)(=O)=O)cccc1N(Cc1ccc(Oc2ccccc2)cc1)Cc1cccc(CCCC(=O)NCCO[C@H]2CC[C@@]3(C)[C@@H](C2)C[C@@H](O)[C@@H]2[C@@H]3C[C@H](O)[C@]3(C)[C@@H]([C@H](C)CCC(=O)O)CC[C@@H]23)c1`, inhibition in assay [1] was half-maximal at 0.093 µM (IC50).

On to `Cc1c(NS(C)(=O)=O)cccc1N(Cc1ccccc1)Cc1ccc(Oc2cccc(OCC(=O)NCCO[C@H]3CC[C@@]4(C)[C@@H](C3)C[C@@H](O)[C@@H]3[C@@H]4C[C@H](O)[C@]4(C)[C@@H]([C@H](C)CCC(=O)O)CC[C@@H]34)c2)cc1`, for which the figures for the IC50 in assay [1] and in assay [2] were 0.057 µM and 0.59 µM, respectively.

`Cc1c(NS(C)(=O)=O)cccc1N(Cc1ccc(Oc2ccc(CCC(=O)NCCO[C@@H]3CC[C@]4(C)[C@H](C3)C[C@H](O)[C@@H]3[C@@H]4C[C@@H](O)[C@]4(C)[C@H]3CC[C@H]4[C@@H](C)CCC(=O)O)cc2)cc1)Cc1ccc(F)cc1F` displayed a concentration for half-maximal inhibition (IC50) in assay [1] of 0.27 µM.

On to `Cc1c(NS(C)(=O)=O)cccc1N(Cc1ccccc1)Cc1ccc(Oc2ccc(CCCC(=O)NCCO[C@H]3CC[C@@]4(C)[C@@H](C3)C[C@@H](O)[C@@H]3[C@@H]4C[C@H](O)[C@]4(C)[C@@H]([C@H](C)CCC(=O)O)CC[C@@H]34)cc2)cc1`, for which 0.05 µM corresponded to half-maximal inhibition in assay [1] (IC50).

`Cc1c(NS(C)(=O)=O)cccc1N(Cc1ccccc1)Cc1ccc(Oc2ccc(CCC(=O)NCCO[C@@H]3CC[C@]4(C)[C@H](C3)C[C@H](O)[C@@H]3[C@@H]4C[C@@H](O)[C@]4(C)[C@H]3CC[C@H]4[C@@H](C)CCC(=O)O)cc2)cc1`: the IC50 entry in assay [3] was “Not Active”; in assay [1] it was 0.017 µM; in assay [2], 0.45 µM; in assay [4], 0.004 µM.

The values above are taken from ChEMBL document CHEMBL1137149, “Bile acid conjugates of a nonsteroidal glucocorticoid receptor modulator” (Bioorg Med Chem Lett, 2004).
